Like-named read-outs stand apart in the source and are kept apart here.
Assays:
[1] = test system: hNSC; experiment: MMP assay in human neural stem cells (hNSC); assay type: cell-based; conditions: Homo sapiens, Neural stem cell; 1 h treatment; fresh re-sourced stocks; mean±SD of three experiments; read-out: hNSC IC50 (MMP)
[2] = test system: p53 (p53-bla HCT-116 cells); experiment: p53 β-lactamase reporter gene assay; assay type: cell-based, human; conditions: 16 h incubation, mean±SD of three experiments
[3] = test system: HepG2 cells; conditions: cited from earlier work
[4] = test system: HepG2 cells; experiment: ROS-Glo hydrogen peroxide (ROS) assay; assay type: cell-based, human; conditions: 2 h treatment, mean±SD of three experiments
[5] = test system: HepG2 cells; experiment: cells; conditions: Homo sapiens; for Emax: HepG2, read-out: MMP assays efficacy (%) HepG2
[6] = test system: isolated rat liver mitochondria; experiment: Oxygen consumption, Clark-type oxygen electrode; assay type: biochemical; conditions: for I-ADP, % of control (O2 consumption rate): glutamate/malate driven state 3 respiration; for I-ADP, % of control (O2 consumption rate) / I-sub, % of control (O2 consumption rate) / II-ADP, % of control (O2 consumption rate) / II-sub, % of control (O2 consumption rate): isolated rat liver mitochondria; for I-sub, % of control (O2 consumption rate): glutamate/malate driven state 4 respiration; for II-ADP, % of control (O2 consumption rate): succinate-driven state 3 respiration; for II-sub, % of control (O2 consumption rate): succinate-driven state 4 respiration; for Potential Mechanism: mitochondrial respiration in isolated rat liver mitochondria, Clark type oxygen electrode, over tested concentrations
[7] = test system: Nrf2/ARE (ARE-bla HepG2 cells); experiment: ARE β-lactamase reporter gene assay; assay type: cell-based, human; conditions: Homo sapiens, HepG2; 16 h incubation; mean±SD of three experiments; read-out: ARE (HepG2) EC50
[8] = test system: HepG2 cells; experiment: Intracellular ATP content (cell viability) assay; assay type: cell-based, human; conditions: 40 h treatment, mean±SD of three experiments; for IC50: Homo sapiens, HepG2
[9] = test system: rat primary hepatocytes; experiment: MMP assay in rat primary hepatocytes; conditions: for Rat hepatocytes (efficacy) (MMP): % of positive control, mean±SD of three experiments; for IC50: Rattus norvegicus, Hepatocyte; for MMP assays efficacy (%) Rat Hepatocytes: mean ± SD of three experiments
[10] = test system: HeLa cells expressing YFP-Parkin; experiment: Parkin translocation assay; assay type: cell-based, human; conditions: HeLa cells stably expressing YFP-Parkin; treated for 2 h
[11] = test system: Caenorhabditis elegans (Bristol N2); experiment: C. elegans larval development and growth assay
[12] = test system: Caenorhabditis elegans strain PE255; experiment: In vivo C. elegans ATP status assay
[13] = test system: HepG2 cells; conditions: 10 mM galactose, no glucose; 1 h treatment; mean±SD of three experiments
[14] = HepG2, 1 h, read-out: HepG2 IC50 Glucose (MMP)
[15] = HepG2, read-out: MMP assays IC50 (µM) HepG2
[16] = 1 h, read-out: Rat hepatocytes IC50 (MMP)
[17] = read-out: MMP assays IC50 (µM) Rat Hepatocytes

## Cc1cc(O)c2c(c1)C(=O)c1cc(O)cc(O)c1C2=O [Emodin]
[1]
  IC50: 1.09 ± 0.56 µM
[2]; Homo sapiens
  EC50: 14.9 ± 6.5 µM
[3]
  MMP assays efficacy (%) qHTS-HepG2: -97±5%
[3]; read-out: MMP assays IC50 (µM) qHTS-HepG2
  IC50: 1.33 ± 0.78 µM
[4]; Homo sapiens, HepG2, read-out: ROS (HepG2) EC50
  EC50: 5.24 ± 1.72 µM
[5]; HepG2, 1 h, read-out: HepG2 IC50 Galactose (MMP)
  IC50: 8 ± 1.44 µM
[5]; [14]
  IC50: 6.14 ± 1.29 µM
[5]; [15]
  IC50: 2.51 µM
[5]
  Emax: 104%
[6]; 0.16 µM
  I-ADP, % of control (O2 consumption rate): 93 (34.5) % of control
  I-sub, % of control (O2 consumption rate): 102 (11.0) % of control
  II-ADP, % of control (O2 consumption rate): 94 (59.1) % of control
  II-sub, % of control (O2 consumption rate): 110 (20.4) % of control
[6]; 0.8 µM
  I-ADP, % of control (O2 consumption rate): 98 (36.6) % of control
  I-sub, % of control (O2 consumption rate): 120 (13.0) % of control
  II-ADP, % of control (O2 consumption rate): 94 (59.4) % of control
  II-sub, % of control (O2 consumption rate): 114 (21.1) % of control
[6]; 4 µM
  I-ADP, % of control (O2 consumption rate): 110 (41.0) % of control
  I-sub, % of control (O2 consumption rate): 232 (25.1) % of control
  II-ADP, % of control (O2 consumption rate): 84 (53.2) % of control
  II-sub, % of control (O2 consumption rate): 144 (26.8) % of control
[6]; 20 µM
  I-ADP, % of control (O2 consumption rate): 144 (53.6) % of control
  I-sub, % of control (O2 consumption rate): 540 (58.3) % of control
  II-ADP, % of control (O2 consumption rate): 81 (51.3) % of control
  II-sub, % of control (O2 consumption rate): 198 (36.7) % of control
[6]; 100 µM
  I-ADP, % of control (O2 consumption rate): 59 (30.1) % of control
  I-sub, % of control (O2 consumption rate): 165 (35.4) % of control
  II-ADP, % of control (O2 consumption rate): 33 (19.6) % of control
  II-sub, % of control (O2 consumption rate): 67 (23.4) % of control
[6]
  Potential Mechanism: Uncoupler at low concentrations (4-20 µM), and Uncoupler + inhibitor at high concentrations (100 µM)
[7]
  EC50: 10.5 ± 1.45 µM
[8]; 5 mM glucose, read-out: ATP (HepG2, glucose) IC50
  IC50: 43 ± 4.95 µM
[8]; 10 mM galactose, read-out: ATP (HepG2, galactose) IC50
  IC50: 39.7 ± 2.69 µM
[9]
  Rat hepatocytes (efficacy) (MMP): −106±9.55%
  MMP assays efficacy (%) Rat Hepatocytes: -101±17%
[9]; [16]
  IC50: 15.8 ± 1.07 µM
[9]; [17]
  IC50: 6.28 ± 4.57 µM
[10]
  Parkin recruitment: Active
[11]; 0.5 µM
  EXT: mean difference in nematode size relative to plate controls: 0.07129
[11]; 1 µM
  EXT: mean difference in nematode size relative to plate controls: 0.003832
[11]; 5 µM
  EXT: mean difference in nematode size relative to plate controls: -0.0304
[11]; 10 µM
  EXT: mean difference in nematode size relative to plate controls: 0.01596
[11]; 25 µM
  EXT: mean difference in nematode size relative to plate controls: 0.07038
[11]; 50 µM
  EXT: mean difference in nematode size relative to plate controls: 0.04376
[11]; 100 µM
  EXT: mean difference in nematode size relative to plate controls: -0.01346
[11]; 0.5–100μM, 48 h exposure
  effect on larval growth (in words): did not affect growth
[12]; 0.5 µM
  LUM: mean difference in luminescence (ATP content) relative to plate controls: 0.08724
[12]; 1 µM
  LUM: mean difference in luminescence (ATP content) relative to plate controls: 0.09663
[12]; 5 µM
  LUM: mean difference in luminescence (ATP content) relative to plate controls: 0.2419
[12]; 10 µM
  LUM: mean difference in luminescence (ATP content) relative to plate controls: 0.4641
[12]; 25 µM
  LUM: mean difference in luminescence (ATP content) relative to plate controls: 0.5201
[12]; 50 µM
  LUM: mean difference in luminescence (ATP content) relative to plate controls: 0.576
[12]; 75 µM
  LUM: mean difference in luminescence (ATP content) relative to plate controls: 0.5532
[12]; 100 µM
  LUM: mean difference in luminescence (ATP content) relative to plate controls: 0.7699
[12]; 0.5–100μM, 24 h exposure
  effect on ATP content (in words): statistically significant decreases in ATP content
[12]; Caenorhabditis elegans, read-out: LEC LUM: lowest effect concentration for luminescence, a measure of nematode ATP content
  minimal effective concentration: 25 µM

## O=C(O)c1cc(O)c2c(c1)C(=O)c1cccc(O)c1C2=O [Rhein]
[1]
  IC50: 10.3 ± 3.4 µM
[2]
  p53 (HCT-116) EC50: Inactive
[3]
  MMP assays efficacy (%) qHTS-HepG2: -100±22%
[3]; read-out: MMP assays IC50 (µM), qHTS-HepG2
  IC50: 6.06 ± 5.91 µM
[4]
  ROS (HepG2) EC50: Inactive
[13]
  HepG2 IC50 Galactose (MMP): Inactive
[5]; [14]
  IC50: 15.2 ± 1.76 µM
[5]; [15]
  IC50: 8.91 µM
[5]
  Emax: 86%
[6]; 4 µM
  I-ADP, % of control (O2 consumption rate): 90 (49.1) % of control
  I-sub, % of control (O2 consumption rate): 105 (13.7) % of control
  II-ADP, % of control (O2 consumption rate): 89 (78.7) % of control
  II-sub, % of control (O2 consumption rate): 103 (25.4) % of control
[6]; 20 µM
  I-ADP, % of control (O2 consumption rate): 87 (47.4) % of control
  I-sub, % of control (O2 consumption rate): 127 (16.6) % of control
  II-ADP, % of control (O2 consumption rate): 87 (76.7) % of control
  II-sub, % of control (O2 consumption rate): 128 (31.4) % of control
[6]
  Potential Mechanism: Uncoupler
[7]
  EC50: 15.4 ± 8.38 µM
[8]; 5 mM glucose
  ATP (HepG2, glucose) IC50: Inactive
[8]; 10 mM galactose
  ATP (HepG2, galactose) IC50: Inactive
[9]
  Rat hepatocytes (efficacy) (MMP): −37.5±6.05%
  MMP assays efficacy (%) Rat Hepatocytes: -80±28%
[9]; [16]
  IC50: 6.76 ± 4.03 µM
[9]; [17]
  IC50: 11.6 ± 4.85 µM
[10]
  Parkin recruitment: Inactive
[11]; 0.5 µM
  EXT: mean difference in nematode size relative to plate controls: 0.02304
[11]; 1 µM
  EXT: mean difference in nematode size relative to plate controls: 0.01629
[11]; 5 µM
  EXT: mean difference in nematode size relative to plate controls: 0.06956
[11]; 10 µM
  EXT: mean difference in nematode size relative to plate controls: -0.06339
[11]; 25 µM
  EXT: mean difference in nematode size relative to plate controls: -0.09625
[11]; 50 µM
  EXT: mean difference in nematode size relative to plate controls: 0.296
[11]; 75 µM
  EXT: mean difference in nematode size relative to plate controls: 0.2342
[11]; 100 µM
  EXT: mean difference in nematode size relative to plate controls: 0.2496
[12]; 0.05 µM
  LUM: mean difference in luminescence (ATP content) relative to plate controls: -0.02422
[12]; 0.1 µM
  LUM: mean difference in luminescence (ATP content) relative to plate controls: 0.007311
[12]; 0.5 µM
  LUM: mean difference in luminescence (ATP content) relative to plate controls: 0.006998
[12]; 1 µM
  LUM: mean difference in luminescence (ATP content) relative to plate controls: 0.1053
[12]; 5 µM
  LUM: mean difference in luminescence (ATP content) relative to plate controls: 0.1063
[12]; 10 µM
  LUM: mean difference in luminescence (ATP content) relative to plate controls: 0.1127
[12]; 25 µM
  LUM: mean difference in luminescence (ATP content) relative to plate controls: 0.2215
[12]; 50 µM
  LUM: mean difference in luminescence (ATP content) relative to plate controls: 0.2804
[12]; 75 µM
  LUM: mean difference in luminescence (ATP content) relative to plate controls: 0.1816
[12]; 100 µM
  LUM: mean difference in luminescence (ATP content) relative to plate controls: 0.2365

Source: article PMC6112376, “Comprehensive Analyses and Prioritization of Tox21 10K Chemicals Affecting Mitochondrial Function by in-Depth Mechanistic Studies” (Environmental Health Perspectives, 2018)
